From patent US20260125400A1, “TYK2 DEGRADERS AND USES THEREOF” (Kymera Therapeutics, Inc., priority 2023, published 2026)
Like-named read-outs stand apart in the source and are kept apart here.

Biological target: T1, TYK2 (Homo sapiens, UniProt P29597)
T1 construct: Degradation of TYK2 in cells was quantitatively measured using Meso Scale Discovery (MSD) technology; endogenous in cells; host or cells: OCI-LY10
Assay: TYK2 MSD degradation in OCI-LY10 cells
Type: cell-based
Details: 4 to 24 hours incubation; for DC50: read-out: TYK2 MSD OCI-LY10 Rel-DC50
How it was run: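 Cellular TYK2 levels were measured by Meso Scale Discovery sandwich detection in RIPA lysates of OCI-LY10 cells exposed 4 to 24 hours at 37° C to nine 1:3 compound doses starting at 1 to 10 μM final; dose-response fitted by four-parameter regression.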

[1] = TYK2 degradation in OCI-LY10 cells

T1 sequence (P29597 whole entry): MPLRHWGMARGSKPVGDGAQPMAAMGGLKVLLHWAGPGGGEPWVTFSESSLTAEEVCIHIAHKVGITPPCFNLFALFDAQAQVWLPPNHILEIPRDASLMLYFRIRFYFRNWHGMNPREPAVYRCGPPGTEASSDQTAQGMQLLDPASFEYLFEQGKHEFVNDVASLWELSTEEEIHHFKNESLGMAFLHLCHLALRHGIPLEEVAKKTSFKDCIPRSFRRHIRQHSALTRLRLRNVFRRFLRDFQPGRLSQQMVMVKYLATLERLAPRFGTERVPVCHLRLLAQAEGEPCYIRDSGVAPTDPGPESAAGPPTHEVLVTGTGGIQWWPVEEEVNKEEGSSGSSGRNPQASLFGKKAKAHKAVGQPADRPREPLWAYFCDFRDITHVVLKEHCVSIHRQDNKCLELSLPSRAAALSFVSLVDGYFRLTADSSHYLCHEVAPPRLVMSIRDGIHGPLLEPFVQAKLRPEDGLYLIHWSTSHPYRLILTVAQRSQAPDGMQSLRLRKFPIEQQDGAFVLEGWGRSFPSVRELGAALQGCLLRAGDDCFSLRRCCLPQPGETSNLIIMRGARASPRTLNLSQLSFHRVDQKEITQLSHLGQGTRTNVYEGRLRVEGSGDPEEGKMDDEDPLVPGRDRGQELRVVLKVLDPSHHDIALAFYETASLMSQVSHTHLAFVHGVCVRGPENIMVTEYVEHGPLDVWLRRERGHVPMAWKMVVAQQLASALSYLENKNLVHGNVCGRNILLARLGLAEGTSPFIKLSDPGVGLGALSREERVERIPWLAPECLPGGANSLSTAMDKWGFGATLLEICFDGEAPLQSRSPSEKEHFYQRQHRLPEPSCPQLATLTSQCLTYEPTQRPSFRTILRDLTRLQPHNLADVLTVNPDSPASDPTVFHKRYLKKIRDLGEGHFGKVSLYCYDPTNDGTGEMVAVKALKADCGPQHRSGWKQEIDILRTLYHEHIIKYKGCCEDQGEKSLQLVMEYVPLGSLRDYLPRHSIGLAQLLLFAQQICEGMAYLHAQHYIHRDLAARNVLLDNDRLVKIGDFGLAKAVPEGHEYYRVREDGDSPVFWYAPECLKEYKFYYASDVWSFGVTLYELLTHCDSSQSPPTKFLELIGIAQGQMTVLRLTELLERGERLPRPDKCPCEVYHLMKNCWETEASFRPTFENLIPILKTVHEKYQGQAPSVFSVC

SMILES	TYK2 MSD OCI-LY10 Dmax % (OCI-LY10 cells)	DC50 (OCI-LY10 cells) [nM]	TYK2 MSD OCI-LY10 Dmax % [1]	DC50 [1] [nM]
CNc1cc(N2CCc3c(-c4ccc(N5CCC6(CC5)CN(C(=O)c5ccc(C7CCC(=O)NC7=O)c(Cl)c5)C6)cn4)cccc32)nn2c(C(=O)NC3CC3F)cnc12 (mixture of isomers) [I-447]	C (C (75 to 50%))	< 10		
CNc1cc(N2CCc3c(-c4cnc(CC5CC6(CCN(C(=O)c7cc(C)c(Cl)c(N8CCC(=O)NC8=O)c7)CC6)C5)cn4)cccc32)nn2c(C(=O)N[C@@H]3C[C@@H]3F)cnc12 [I-760]	B (B (90 to >75%))	< 10		
CNc1cc(N2CCc3c(-c4ccc(CC5CCC6(CC5)CCN(C(=O)c5ccc(Cl)c(N7CCC(=O)NC7=O)c5)CC6)cn4)cccc32)nn2c(C(=O)N[C@@H]3C[C@@H]3F)cnc12 [I-654]	B (B (90 to >75%))	< 10		
CNc1cc(N2CCc3c(-c4ccc(CN5CCC6(CCN(C(=O)c7cc(C)c(Cl)c(N8CCC(=O)NC8=O)c7)CC6)C(F)(F)C5)cn4)cccc32)nc2c(C(=O)N[C@@H]3C[C@@H]3F)cnn12 [I-816]			B (B (90 to >75%))	< 10
CNc1cc(N2CCc3c(-c4ccc(CN5CC6(CCN(C(=O)c7ccc(Cl)c(C8CCC(=O)NC8=O)c7)CC6(F)F)C5)cn4)cccc32)nn2c(C(=O)N[C@@H]3C[C@@H]3F)cnc12 (stereo partly drawn) [I-502]	A (A (>90%))	< 1		
CNc1cc(N2CCc3c(N4CCN(CC5CCC6(CC5)CCN(C(=O)c5ccc(Cl)c(N7CCC(=O)NC7=O)c5)CC6)CC4)cccc32)nn2c(C(=O)NC3CC3)cnc12 [I-55]			D (D (<50%))	> 100
CNc1cc(N2CCc3c(-c4ccc(CN5CCC(N6CCN(c7ccc(C8CCC(=O)NC8=O)c(Cl)c7)CC6)C(F)(F)C5)cn4)cccc32)nn2c(C(=O)N[C@H]3C[C@H]3F)cnc12 (stereo partly drawn) [I-83]			D (D (<50%))	< 10
CNc1cc(N2CCc3c(-c4ncc(CN5CC6(CCN(C(=O)c7cc(Cl)c(C)c(N8CCC(=O)NC8=O)c7)CC6(F)F)C5)cc4F)cc(F)cc32)nn2c(C(=O)N[C@@H]3C[C@@H]3F)cnc12 [I-944]			A (A (>90%))	< 1
CNc1cc(N2CCc3c(CN4CCC(N5CC(N6CCN(c7ccc8c(c7)n(C)c(=O)n8C7CCC(=O)NC7=O)CC6)C5)C(F)(F)C4)cccc32)nn2c(C(=O)N[C@@H]3C[C@@H]3F)cnc12 (stereo partly drawn) [I-72]			B (B (90 to >75%))	< 1
CNc1cc(N2CCc3c(-c4ccc(CN5CCC6(CCN(C(=O)c7cc(Cl)cc(N8CCC(=O)NC8=O)c7)CC6)C(F)(F)C5)cn4)cccc32)nn2c(C(=O)N[C@@H]3C[C@@H]3F)cnc12 [I-835]			B (B (90 to >75%))	< 10
CNc1cc(N2CCc3c(C#CCN4CCC(N5CCC6(CC5)CN(C(=O)c5ccc(Cl)c(N7CCC(=O)NC7=O)c5)C6)C(F)(F)C4)cccc32)nn2c(C(=O)N[C@@H]3C[C@@H]3F)cnc12 (stereo partly drawn) [I-702]	B (B (90 to >75%))	< 1		
CNc1cc(N2CCc3c(C#CCN4CCC(N5CC6(CCN(C(=O)c7ccc(Cl)c(N8CCC(=O)NC8=O)c7)CC6)C5)C(F)(F)C4)cccc32)nn2c(C(=O)N[C@@H]3C[C@@H]3F)cnc12 (stereo partly drawn) [I-701]	A (A (>90%))	< 1		
CNc1cc(N2CCc3c2cccc3C23CC(CN4CCC(N5CCC6(CCN(C(=O)c7ccc(Cl)c(N8CCC(=O)NC8=O)c7)CC6)CC5)C(F)(F)C4)(C2)C3)nn2c(C(=O)N[C@@H]3C[C@@H]3F)cnc12 (stereo partly drawn) [I-807]			B (B (90 to >75%))	< 10
CNc1cc(N2CCc3c(-c4ncc(CN5CC6(CCN(C(=O)c7ccc(Cl)c(N8CCC(=O)NC8=O)c7)CC6)C5)cn4)cccc32)nn2c(C(=O)N[C@@H]3C[C@@H]3F)cnc12 [I-250]			B (B (90 to >75%))	< 1
CNc1cc(-c2ccc(-c3ccc(CN4CC5(CCN(C(=O)c6ccc(Cl)c(N7CCC(=O)NC7=O)c6)CC5(F)F)C4)cn3)cc2)nn2c(C(=O)N[C@@H]3C[C@@H]3F)cnc12 [I-880]			B (B (90 to >75%))	< 10
CNc1cc(N2CCc3c(-c4ncc(CN5CCC6(CCN(C(=O)c7cc(C)c(Cl)c(N8CCC(=O)NC8=O)c7)CC6)C(F)(F)C5)cc4C)cccc32)nn2c(C(=O)N[C@@H]3C[C@@H]3F)cnc12 [I-763]	B (B (90 to >75%))	< 10		
CNc1cc(N2CCc3c(-c4ncc(CN5CC6(CCN(C(=O)c7cc(C)c(Cl)c(N8CCC(=O)NC8=O)c7)CC6(F)F)C5)cc4Cl)cccc32)nn2c(C(=O)N[C@@H]3C[C@@H]3F)cnc12 [I-747]	B (B (90 to >75%))	< 10		
CNc1cc(N2CCc3c(-c4cc(CN5CCN(c6ccn7c(N8CCC(=O)NC8=O)cnc7c6)CC5)ccn4)cccc32)nn2c(C(=O)N[C@@H]3C[C@@H]3F)cnc12 [I-719]	C (C (75 to 50%))	< 10		

SMILES	TYK2 MSD OCI-LY10 Dmax % (OCI-LY10 cells)	DC50 (OCI-LY10 cells) [nM]	TYK2 MSD OCI-LY10 Dmax % [1]	DC50 [1] [nM]
CNc1cc(N2CCc3c(C#CCN4CCC5(CCN(C(=O)c6ccc(Cl)c(N7CCC(=O)NC7=O)c6)CC5)C(F)(F)C4)cccc32)nn2c(C(=O)N[C@@H]3C[C@@H]3F)cnc12 [I-242]			C (C (75 to 50%))	< 10
CNc1cc(N2CCc3c(CN4CCC(N5CCC6(CCN(C(=O)c7cc(Cl)c(C)c(N8CCC(=O)NC8=O)c7)CC6)CC5)C(F)(F)C4)cccc32)nn2c(C(=O)N[C@@H]3C[C@@H]3F)cnc12 (stereo partly drawn) [I-711]	B (B (90 to >75%))	< 10		
CNc1cc(N2CCc3c(-c4cc(CN5CCC6(CC5)CN(c5ccc7c(c5)n(C)c(=O)n7C5CCC(=O)NC5=O)C6)ccn4)cccc32)nn2c(C(=O)NC3CC3)cnc12 (stereo not drawn) [I-21]			D (D (<50%))	< 10
CNc1cc(-c2ccc(N3CCN(CC4CC5(CCN(C(=O)c6ccc(Cl)c(N7CCC(=O)NC7=O)c6)CC5)C4)CC3)cc2)nn2c(C(=O)N[C@@H]3C[C@@H]3F)cnc12 [I-889]			D (D (<50%))	> 100
CNc1cc(N2CCc3c(-c4ccc(CN5CCC6(CC5)CCN(c5cccc7c5n(C)c(=O)n7C5CCC(=O)NC5=O)CC6)cn4)cccc32)nn2c(C(=O)NC3CC3)cnc12 (stereo not drawn) [I-54]			C (C (75 to 50%))	< 10
CNc1cc(N2CCc3c(CN4CCC(CN5CCC(N6CCN(C(=O)c7ccc(Cl)c(N8CCC(=O)NC8=O)c7)CC6)CC5)C(F)(F)C4)cccc32)nn2c(C(=O)N[C@@H]3C[C@@H]3F)cnc12 (stereo partly drawn) [I-770]	B (B (90 to >75%))	< 10		
CNc1cc(N2CCc3c(-c4ccc(CN5CC6(CCN(C(=O)c7ccc(Cl)c(N8CCC(=O)NC8=O)c7)CC6(F)F)C5)cn4)cc(C(F)(F)F)cc32)nn2c(C(=O)N[C@@H]3C[C@@H]3F)cnc12 [I-856]			C (C (75 to 50%))	10 to 100
CNc1cc(N2CCc3c(N4CCN(C5CC6(CCN(C(=O)c7ccc(Cl)c(N8CCC(=O)NC8=O)c7)CC6)C5)CC4)cccc32)nn2c(C(=O)N[C@@H]3C[C@@H]3F)cnc12 [I-283]			D (D (<50%))	> 100
CNc1cc(N2CCc3c(CN4CCC(N5CCC6(CC5)CN(C(=O)c5cc(N7CCC(=O)NC7=O)c(Cl)cn5)C6)C(F)(F)C4)cccc32)nn2c(C(=O)N[C@@H]3CC[C@H]3OC)cnc12 (stereo partly drawn) [I-1158]			A (A (>90%))	< 1
CNc1cc(N2CCc3c(-c4ncc(CN5CCC6(CCN(C(=O)c7cc(C)c(Cl)c(N8CCC(=O)NC8=O)c7)CC6)C(F)(F)C5)cc4Cl)cccc32)nn2c(C(=O)N[C@@H]3C[C@@H]3F)cnc12 [I-746]	B (B (90 to >75%))	< 10		
CNc1cc(N2CCc3c(-c4ncc(CN5CC6(CCN(C(=O)c7ccc(Cl)c(N8CCC(=O)NC8=O)c7)CC6(F)F)C5)cc4F)cccc32)nn2c(C(=O)N[C@@H]3CC[C@H]3OC)cnc12 [I-1154]			A (A (>90%))	< 1
CNc1cc(N2CCc3c(-c4ccc(CN5CCC6(CC5)CN(C(=O)c5ccc(Cl)c(N7CCC(=O)NC7=O)c5)CC6(F)F)cn4)cccc32)nn2c(C(=O)N[C@@H]3C[C@@H]3F)cnc12 [I-847]			A (A (>90%))	< 1
CNc1cc(N2CCc3c(CN4CCC(N5CCC6(CCN(C(=O)c7cc(N8CCC(=O)NC8=O)c(Cl)cc7F)CC6)CC5)C(F)(F)C4)cccc32)nn2c(C(=O)N[C@@H]3CC[C@H]3OC)cnc12 (stereo partly drawn) [I-1084]			A (A (>90%))	< 1
CNc1cc(N2CC3(CCN(Cc4cccc5c4n(C)c(=O)n5C4CCC(=O)NC4=O)CC3)c3ccccc32)nn2c(C(=O)NC3CC3)cnc12 (stereo not drawn) [I-52]			D (D (<50%))	> 100
CNc1cc(N2CCc3c(-c4ncc(CN5CC6(CCN(C(=O)c7cc(C)c(Cl)c(N8CCC(=O)NC8=O)c7)CC6(F)F)C5)cc4F)cc(F)cc32)nn2c(C(=O)N[C@@H]3C[C@@H]3F)cnc12 [I-946]			A (A (>90%))	< 1
CNc1cc(N2CCc3c(-c4ccc(N5CCC6(CCN(Cc7ccc(N8CCC(=O)NC8=O)c(Cl)c7)CC6)CC5)cn4)cccc32)nn2c(C(=O)N[C@@H]3C[C@@H]3F)cnc12 [I-870]			C (C (75 to 50%))	10 to 100
CNc1cc(N2CCc3c(CN4CC[C@H](N5CCC6(CCN(C(=O)c7cc(N8CCC(=O)NC8=O)c(Cl)cn7)CC6)CC5)C(F)(F)C4)cc(F)cc32)nn2c(C(=O)N[C@@H]3CC[C@H]3OC)cnc12 [I-1148]			B (B (90 to >75%))	< 1
CNc1cc(N2CCc3c(-c4ccc(CN5CCC(N6CCN(c7ccc8c(c7F)n(C)c(=O)n8C7CCC(=O)NC7=O)CC6)C(F)(F)C5)cn4)cccc32)nn2c(C(=O)NC3CC3F)cnc12 (stereo not drawn) [I-910]			B (B (90 to >75%))	< 10
